A short description of data set [1]: Cytotoxicity against human HepG2 cells after 96 hrs by CCK-8 assay. The format is cell-based.
The subject of data set [2] is dengue virus type 2. Kind of data set: Antiviral activity against Dengue virus 2 infected in human PBMC after 2 days post infection by plaque assay. The format is functional, organism-based. Conditions: 48 h.
A short description of data set [3]: Cytotoxicity against human MT4 cells. The format is cell-based.
The nature of data set [4]: Mitochondrial toxicity in human PC3 cells assessed as effect on mitochondrial protein synthesis measured after 5 days by ELISA. The format is cell-based, PC-3. (An ELISA detects its analyte on a solid surface through an enzyme-linked reagent.)
A short description of data set [5]: Cytotoxicity against human K562 cells. The format is cell-based.
A further data set has as its target Nonstructural protein 5 (Dengue virus, UniProt V5TFZ2). Kind of data set: Inhibition of Dengue virus RdRp activity using 5'-(TCAG)20(TCCAAG)14(TCAG)20-3' as template measured after 120 mins.
In data set [6] the target is POLRMT (DNA-directed RNA polymerase, mitochondrial) (Homo sapiens, UniProt O00411). Kind of data set: Inhibition of human POLRMT using 5'-FAM labelled RNA primer/DNA template duplex assessed as single nucleotide incorporation rate at 500 uM after 5 mins by SDS-PAGE analysis relative to control. Further details: scale not given: the % may be the effect or the level left. The conditions noted are these: probe 5'-FAM labelled RNA primer/DNA template duplex, read-out: Activity.

In data set [7] the test system is dengue virus type 2. Kind of data set: Antiviral activity against Dengue virus 2 infected in human PBMC after 24 hrs post infection by plaque assay. The format is functional, organism-based.
For data set [8], the target named is DNA-directed RNA polymerase, mitochondrial (Homo sapiens, UniProt O00411). The experiment in a line: Inhibition of human full length POLRMT using 32P-RNA primer/DNA template assessed as single nucleotide incorporation rate at 500 uM by SDS-PAGE analysis relative to CTP. Further details: scale not given: the % may be the effect or the level left.
In data set [9] the test system is dengue virus type 2. Kind of data set: Antiviral activity against Dengue virus 2 infected in human HuH7 cells by replicon assay. The data set is classed as functional, organism-based. The conditions noted are these: Huh-7.
Data set [10] in a line: Inhibition of recombinant human mitochondrial DNA polymerase gamma expressed in Escherichia coli BL21(DE3) cells assessed as single nucleotide incorporation rate at 100 uM relative to NTP. On the set-up: scale not given: the % may be the effect or the level left.

pEC50, pIC50: −log10 of the molar value. Bounds are passed on as bounds.

Chain of POLRMT (DNA-directed RNA polymerase, mitochondrial) (O00411 whole entry): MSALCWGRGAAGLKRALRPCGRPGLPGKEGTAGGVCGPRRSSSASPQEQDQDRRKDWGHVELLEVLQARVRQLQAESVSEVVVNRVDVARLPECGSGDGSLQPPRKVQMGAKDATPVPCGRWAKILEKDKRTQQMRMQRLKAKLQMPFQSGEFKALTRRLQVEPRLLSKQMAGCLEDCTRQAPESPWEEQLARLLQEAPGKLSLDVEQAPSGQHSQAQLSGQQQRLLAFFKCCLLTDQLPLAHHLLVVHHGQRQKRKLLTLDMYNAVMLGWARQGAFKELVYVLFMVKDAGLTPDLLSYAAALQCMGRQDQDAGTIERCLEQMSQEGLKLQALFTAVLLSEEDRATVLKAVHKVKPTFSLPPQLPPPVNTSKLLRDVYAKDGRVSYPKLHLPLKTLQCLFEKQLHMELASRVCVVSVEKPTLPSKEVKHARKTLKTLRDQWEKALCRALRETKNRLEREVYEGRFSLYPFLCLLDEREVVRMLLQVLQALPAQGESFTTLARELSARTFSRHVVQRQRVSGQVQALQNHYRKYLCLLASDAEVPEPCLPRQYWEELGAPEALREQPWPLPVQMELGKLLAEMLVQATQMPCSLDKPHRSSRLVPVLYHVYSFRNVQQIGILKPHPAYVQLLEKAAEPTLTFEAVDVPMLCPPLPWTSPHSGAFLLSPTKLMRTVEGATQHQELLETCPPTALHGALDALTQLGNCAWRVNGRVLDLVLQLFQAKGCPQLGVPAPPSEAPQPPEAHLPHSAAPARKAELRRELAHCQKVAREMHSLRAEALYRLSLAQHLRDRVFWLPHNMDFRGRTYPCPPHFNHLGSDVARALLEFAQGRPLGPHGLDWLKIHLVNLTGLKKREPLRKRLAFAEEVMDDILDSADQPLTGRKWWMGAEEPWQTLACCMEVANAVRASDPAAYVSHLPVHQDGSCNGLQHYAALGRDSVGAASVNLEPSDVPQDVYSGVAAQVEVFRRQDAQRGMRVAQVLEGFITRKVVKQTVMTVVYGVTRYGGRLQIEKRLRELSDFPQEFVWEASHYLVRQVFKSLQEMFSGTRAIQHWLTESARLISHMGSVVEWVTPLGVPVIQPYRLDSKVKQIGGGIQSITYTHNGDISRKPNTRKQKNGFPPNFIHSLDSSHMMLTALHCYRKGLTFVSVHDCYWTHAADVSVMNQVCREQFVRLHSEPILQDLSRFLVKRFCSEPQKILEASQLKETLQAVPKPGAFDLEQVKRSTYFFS
Chain of Nonstructural protein 5 (V5TFZ2 whole entry): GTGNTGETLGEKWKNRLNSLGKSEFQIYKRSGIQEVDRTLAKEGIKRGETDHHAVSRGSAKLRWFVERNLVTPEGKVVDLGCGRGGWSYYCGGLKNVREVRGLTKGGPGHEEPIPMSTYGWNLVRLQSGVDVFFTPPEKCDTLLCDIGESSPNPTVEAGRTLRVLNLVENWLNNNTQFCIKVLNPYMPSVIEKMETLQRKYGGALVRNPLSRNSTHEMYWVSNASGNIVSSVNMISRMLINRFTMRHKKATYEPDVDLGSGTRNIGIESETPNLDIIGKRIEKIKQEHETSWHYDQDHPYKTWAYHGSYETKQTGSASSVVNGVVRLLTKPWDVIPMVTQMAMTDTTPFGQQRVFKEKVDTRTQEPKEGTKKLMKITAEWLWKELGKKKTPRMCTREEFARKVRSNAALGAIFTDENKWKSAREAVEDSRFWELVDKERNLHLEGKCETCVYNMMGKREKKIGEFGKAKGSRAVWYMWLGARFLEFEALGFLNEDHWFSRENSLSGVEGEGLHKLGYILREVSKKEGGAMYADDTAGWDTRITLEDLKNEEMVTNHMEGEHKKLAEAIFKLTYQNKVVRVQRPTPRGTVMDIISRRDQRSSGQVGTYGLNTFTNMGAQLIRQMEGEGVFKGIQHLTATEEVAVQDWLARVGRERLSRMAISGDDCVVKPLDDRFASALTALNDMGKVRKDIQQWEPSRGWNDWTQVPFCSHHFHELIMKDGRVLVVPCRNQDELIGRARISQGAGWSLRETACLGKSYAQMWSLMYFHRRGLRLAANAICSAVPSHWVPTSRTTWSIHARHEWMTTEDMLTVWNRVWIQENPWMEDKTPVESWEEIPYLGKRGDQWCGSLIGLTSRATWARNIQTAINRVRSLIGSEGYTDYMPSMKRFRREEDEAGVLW
Chain of DNA-directed RNA polymerase, mitochondrial (O00411 whole entry): as the sequence (O00411 whole entry) above

Turning to `CC#C[C@]1(O)[C@H](n2ccc(=O)[nH]c2=O)O[C@](F)(CO[P@@](=O)(N[C@@H](C)C(=O)OC(C)C)Oc2ccccc2)[C@H]1O`, the CC50 at 96 h in data set [1] was greater than 50 µM. The negative-log EC50 (pEC50) in the data set on dengue virus type 2 [2] is 5.05.

As for `C#C[C@]1(O)[C@H](n2ccc(=O)[nH]c2=O)O[C@](F)(CO[P@@](=O)(N[C@@H](C)C(=O)OC(C)C)Oc2ccccc2)[C@H]1O`, the CC50 in data set [3] and in data set [5] was greater than 50 µM throughout. The CC50 at 120 h in data set [4] was greater than 200 µM. In [1], the CC50 at 96 h is greater than 50 µM. In the data set on dengue virus type 2 [2], this compound gave a pEC50 of 6.24.

As for `CC(C)OC(=O)[C@H](C)N[P@](=O)(OC[C@@]1(F)O[C@@H](n2ccc(=O)[nH]c2=O)[C@](C)(O)[C@@H]1O)Oc1ccccc1` [ADAFOSBUVIR], in data set [1], the CC50 at 96 h is greater than 50 µM. The compound also gave a negative logarithm of the EC50 (pEC50) in the data set on dengue virus type 2 [2] of 5.96.

With `C[C@@]1(O)[C@H](O)[C@@H](COP(=O)(O)OP(=O)(O)OP(=O)(O)O)O[C@H]1n1ccc(=O)[nH]c1=O`, the pIC50 at Nonstructural protein 5 was 5.30. Besides, in data set [6], the activity at 5 min, 500 µM came to 29.4%.

`CC#C[C@@]1(O)[C@H](O)[C@@H](COP(=O)(O)OP(=O)(O)OP(=O)(O)O)O[C@H]1n1ccc(=O)[nH]c1=O`: on Nonstructural protein 5, the pIC50 is 5.70. Further, in data set [6], the activity at 5 min, 500 µM was found to be 6.7%.

In turn, `[N-]=[N+]=N[C@]1(CO)O[C@@H](n2ccc(N)nc2=O)[C@H](O)[C@@H]1O` [4'-AZIDOCYTIDINE] had a negative-log EC50 (pEC50) with dengue virus type 2 [7] of 6.60. Moreover, the Activity in [8] stood at 91%.

`C#C[C@@]1(O)[C@H](O)[C@@H](COP(=O)(O)OP(=O)(O)OP(=O)(O)O)O[C@H]1n1ccc(=O)[nH]c1=O` had a pIC50 at Nonstructural protein 5 of 5.80. For the same compound, in [6], the activity at 5 min, 500 µM was 16.8%.

In data set [1], `C#C[C@@]1(O)[C@H](O)[C@@H](CO[P@@](=O)(N[C@@H](C)C(=O)OC(C)C)Oc2ccccc2)O[C@H]1n1ccc(=O)[nH]c1=O` registered a CC50 at 96 h greater than 50 µM. The negative logarithm of the EC50 (pEC50) with dengue virus type 2 [2] was 6.35.

Turning to `CC#C[C@@]1(F)[C@H](O)[C@@H](COP(=O)(O)OP(=O)(O)OP(=O)(O)O)O[C@H]1n1ccc(=O)[nH]c1=O`, at Nonstructural protein 5, the negative-log IC50 (pIC50) is less than 4.70. The activity at 5 min, 500 µM in data set [6] was found to be 2.2%.

In turn, `CC#C[C@@]1(F)[C@H](O)[C@@H](CO[P@@](=O)(N[C@@H](C)C(=O)OC(C)C)Oc2ccccc2)O[C@H]1n1ccc(=O)[nH]c1=O` gave a CC50 at 96 h in data set [1] greater than 50 µM. For the same compound, the pEC50 in the data set with dengue virus type 2 [9] was less than 4.00.

As to `C#C[C@]1(O)[C@H](n2ccc(=O)[nH]c2=O)O[C@](F)(COP(=O)(O)OP(=O)(O)OP(=O)(O)O)[C@H]1O`, the negative logarithm of the IC50 (pIC50) against Nonstructural protein 5 is 6.19. Besides, in [6], the activity at 5 min, 500 µM amounted to 3%. Besides, the Activity in data set [10] amounted to 0%.

`C#C[C@@]1(F)[C@H](O)[C@@H](COP(=O)(O)OP(=O)(O)OP(=O)(O)O)O[C@H]1n1ccc(=O)[nH]c1=O` showed a pIC50 on Nonstructural protein 5 of 4.80. Moreover, in data set [6], the activity at 5 min, 500 µM stood at 2%.

In turn, `CC(C)OC(=O)[C@H](C)N[P@](=O)(OC[C@H]1O[C@@H](n2ccc(=O)[nH]c2=O)[C@](C)(F)[C@@H]1O)Oc1ccccc1` [SOFOSBUVIR] registered a CC50 at 96 h in [1] greater than 50 µM. This compound also gave a pEC50 in the data set on dengue virus type 2 [2] of 5.92.

As to `C[C@]1(O)[C@H](n2ccc(=O)[nH]c2=O)O[C@](F)(COP(=O)(O)OP(=O)(O)OP(=O)(O)O)[C@H]1O` [ADAFOSBUVIR 5'-TRIPHOSPHATE], the pIC50 on Nonstructural protein 5 is 5.18. The activity at 5 min, 500 µM in data set [6] turned out to be 5.7%.

In data set [1], `CC(C)OC(=O)[C@H](C)NP(=O)(OC[C@H]1O[C@@H](n2ccc(=O)[nH]c2=O)[C@](C)(O)[C@@H]1O)Oc1ccccc1` (mixture of isomers) yielded a cytotoxic concentration (CC50) at 96 h greater than 50 µM. In addition, the pEC50 with dengue virus type 2 [2] was 6.72.

Turning to `CC#C[C@]1(O)[C@H](n2ccc(=O)[nH]c2=O)O[C@](F)(COP(=O)(O)OP(=O)(O)OP(=O)(O)O)[C@H]1O`, the pIC50 against Nonstructural protein 5 is 5.55. Moreover, the activity at 5 min, 500 µM in [6] amounted to 1.7%.

Compound `CC#C[C@@]1(O)[C@H](O)[C@@H](CO[P@@](=O)(N[C@@H](C)C(=O)OC(C)C)Oc2ccccc2)O[C@H]1n1ccc(=O)[nH]c1=O` had a half-maximal cytotoxic concentration (CC50) at 96 h in [1] greater than 50 µM. The negative-log EC50 (pEC50) in the data set on dengue virus type 2 [2] was 5.72.

At Nonstructural protein 5, `C[C@@]1(F)[C@H](O)[C@@H](COP(=O)(O)OP(=O)(O)OP(=O)(O)O)O[C@H]1n1ccc(=O)[nH]c1=O` [GS-461203] had a pIC50 of 4.74. Besides, the activity at 5 min, 500 µM in [6] is 1.8%.

Take `C#C[C@@]1(F)[C@H](O)[C@@H](CO[P@@](=O)(N[C@@H](C)C(=O)OC(C)C)Oc2ccccc2)O[C@H]1n1ccc(=O)[nH]c1=O`: the CC50 at 96 h in data set [1] was greater than 50 µM. This compound showed a pEC50 in the data set with dengue virus type 2 [2] of less than 4.60.

One may read the CC50 as the concentration at which the toxic effect on the cells reaches its halfway point. Broadly, the pEC50 is the negative decadic logarithm of the EC50, by convention in mol/L. One may read the pIC50 as −log10 of the IC50, conventionally taken in molar units.

(Values after ChEMBL document CHEMBL4118212, “Structure-activity relationship of uridine-based nucleoside phosphoramidate prodrugs for inhibition of dengue virus RNA-dependent RNA polymerase” (Bioorg Med Chem Lett, 2018).)
